Laboratory results: patent US11331369B2, “Endoparasitic depsipeptides” (Zoetis Services LLC, priority 2017, dated 2022)

Key:
[1] = test system: microfilariae of Dirofilaria immitis; assay: Dirofilaria immitis, Microfilaria (DiMF) In vitro Assay; format: cell-based; conditions: 72 h, read-out: DiMF Minimum Effective Dose (MED), approximately 72 hours incubation, microfilariae assessed for survival or paralysis
[2] = test system: 4th stage larvae (L4) of Dirofilaria immitis; assay: Dirofilaria immitis, L4 Stage (DiL4) In Vitro Assay; format: cell-based; conditions: Dirofilaria immitis, 72 h, read-out: DiL4 Minimum Effective Dose (MED), approximately 72 hours incubation; L4 larvae assessed for survival or paralysis

SMILES	minimal effective concentration [1] [µM]	minimal effective concentration [2] [µM]
CC(C)C[C@H]1C(=O)O[C@H](Cc2ccc(Cn3ccc(C#N)c3)cc2)C(=O)N(C)[C@@H](CC(C)C)C(=O)O[C@H](C)C(=O)N(C)[C@@H](CC(C)C)C(=O)O[C@H](Cc2ccc(Cn3ccc(C#N)c3)cc2)C(=O)N(C)[C@@H](CC(C)C)C(=O)O[C@H](C)C(=O)N1C [Example 9-25, 1-[[4-[[(2R,5S,8R,11S,14R,17S,20R,23S)-14-[[4-[(3-cyanopyrrol-1-yl)methyl]phenyl]methyl]-5,11,17,23-tetraisobutyl-4,8,10,16,20,22-hexamethyl-3,6,9,12,15,18,21,24-octaoxo-1,7,13,19-tetraoxa-4,10,16,22-tetrazacyclotetracos-2-yl]methyl]phenyl]methyl]pyrrole-3-carbonitrile]	0.001 to 0.01	0.0001 to 0.001
CC(C)C[C@H]1C(=O)O[C@H](Cc2ccc(Cn3nc(C#N)cc3C#N)cc2)C(=O)N(C)[C@@H](CC(C)C)C(=O)O[C@H](C)C(=O)N(C)[C@@H](CC(C)C)C(=O)O[C@H](Cc2ccc(Cn3cc(Br)c(C#N)n3)cc2)C(=O)N(C)[C@@H](CC(C)C)C(=O)O[C@H](C)C(=O)N1C [Example 1a-1, 1-(4-(((2R,5S,8R,11S,14R,17S,20R,23S)-14-(4-((4-bromo-3-cyano-1H-pyrazol-1-yl)methyl)benzyl)-5,11,17,23-tetraisobutyl-4,8,10,16,20,22-hexamethyl-3,6,9,12,15,18,21,24-octaoxo-1,7,13,19-tetraoxa-4,10,16,22-tetraazacyclotetracosan-2-yl)methyl)benzyl)-1H-pyrazole-3,5-dicarbonitrile]	0.001 to 0.01	0.0001 to 0.001
CCC#Cc1cnn(Cc2ccc(C[C@H]3OC(=O)[C@H](CC(C)C)N(C)C(=O)[C@@H](C)OC(=O)[C@H](CC(C)C)N(C)C(=O)[C@@H](Cc4ccccc4)OC(=O)[C@H](CC(C)C)N(C)C(=O)[C@@H](C)OC(=O)[C@H](CC(C)C)N(C)C3=O)cc2)c1 [Example 2-77, (3S,6R,9S,12R,15S,18R,21S,24R)-6-benzyl-18-(4-((4-(but-1-yn-1-yl)-1H-pyrazol-1-yl)methyl)benzyl)-3,9,15,21-tetraisobutyl-4,10,12,16,22,24-hexamethyl-1,7,13,19-tetraoxa-4,10,16,22-tetraazacyclotetracosan-2,5,8,11,14,17,20,23-octaone]	0.001 to 0.01	0.0001 to 0.001
CC#Cc1cnn(Cc2ccc(C[C@H]3OC(=O)[C@H](CC(C)C)N(C)C(=O)[C@@H](C)OC(=O)[C@H](CC(C)C)N(C)C(=O)[C@@H](Cc4ccccc4)OC(=O)[C@H](CC(C)C)N(C)C(=O)[C@@H](C)OC(=O)[C@H](CC(C)C)N(C)C3=O)cc2)c1 [Example 2-76, (3S,6R,9S,12R,15S,18R,21S,24R)-6-benzyl-3,9,15,21-tetraisobutyl-4,10,12,16,22,24-hexamethyl-18-(4-((4-(prop-1-yn-1-yl)-1H-pyrazol-1-yl)methyl)benzyl)-1,7,13,19-tetraoxa-4,10,16,22-tetraazacyclotetracosan-2,5,8,11,14,17,20,23-octaone]	0.001 to 0.01	0.0001 to 0.001
CC(C)C[C@H]1C(=O)O[C@H](Cc2ccc(Cn3cc(COC(C)C)cn3)cc2)C(=O)N(C)[C@@H](CC(C)C)C(=O)O[C@H](C)C(=O)N(C)[C@@H](CC(C)C)C(=O)O[C@H](Cc2ccc(Cn3cc(COC(C)C)cn3)cc2)C(=O)N(C)[C@@H](CC(C)C)C(=O)O[C@H](C)C(=O)N1C [Example 1b-184, (3S,6R,9S,12R,15S,18R,21S,24R)-3,9,15,21-tetraisobutyl-6,18-bis(4-((4-(isopropoxymethyl)-1H-pyrazol-1-yl)methyl)benzyl)-4,10,12,16,22,24-hexamethyl-1,7,13,19-tetraoxa-4,10,16,22-tetraazacyclotetracosan-2,5,8,11,14,17,20,23-octaone]	0.001 to 0.01	0.001 to 0.01
CC(C)C[C@H]1C(=O)O[C@H](Cc2ccc(Cn3cc(C#N)cn3)cc2)C(=O)N(C)[C@@H](CC(C)C)C(=O)O[C@H](C)C(=O)N(C)[C@@H](CC(C)C)C(=O)O[C@H](Cc2ccccc2)C(=O)N(C)[C@@H](CC(C)C)C(=O)O[C@H](C)C(=O)N1C [Example 2-10, 1-(4-(((2R,5S,8R,11S,14R,17S,20R,23S)-14-benzyl-5,11,17,23-tetraisobutyl-4,8,10,16,20,22-hexamethyl-3,6,9,12,15,18,21,24-octaoxo-1,7,13,19-tetraoxa-4,10,16,22-tetraazacyclotetracosan-2-yl)methyl)benzyl)-1H-pyrazole-4-carbonitrile]	0.001 to 0.01	0.0001 to 0.001
Cc1cnn(Cc2ccc(C[C@H]3OC(=O)[C@H](CC(C)C)N(C)C(=O)[C@@H](C)OC(=O)[C@H](CC(C)C)N(C)C(=O)[C@@H](Cc4ccc(Cn5ncc(C)c5C)cc4)OC(=O)[C@H](CC(C)C)N(C)C(=O)[C@@H](C)OC(=O)[C@H](CC(C)C)N(C)C3=O)cc2)c1C [Example 1b-152, (3S,6R,9S,12R,15S,18R,21S,24R)-6,18-bis(4-((4,5-dimethyl-1H-pyrazol-1-yl)methyl)benzyl)-3,9,15,21-tetraisobutyl-4,10,12,16,22,24-hexamethyl-1,7,13,19-tetraoxa-4,10,16,22-tetraazacyclotetracosan-2,5,8,11,14,17,20,23-octaone]	0.001 to 0.01	0.001 to 0.01
CC(C)C#Cc1cnn(Cc2ccc(C[C@H]3OC(=O)[C@H](CC(C)C)N(C)C(=O)[C@@H](C)OC(=O)[C@H](CC(C)C)N(C)C(=O)[C@@H](Cc4ccc(Cn5cc(C#CC(C)C)cn5)cc4)OC(=O)[C@H](CC(C)C)N(C)C(=O)[C@@H](C)OC(=O)[C@H](CC(C)C)N(C)C3=O)cc2)c1 [Example 1b-112, (3S,6R,9S,12R,15S,18R,21S,24R)-3,9,15,21-tetraisobutyl-4,6,10,16,18,22-hexamethyl-12,24-bis(4-((4-(3-methylbut-1-yn-1-yl)-1H-pyrazol-1-yl)methyl)benzyl)-1,7,13,19-tetraoxa-4,10,16,22-tetraazacyclotetracosan-2,5,8,11,14,17,20,23-octaone]	0.01 to 0.1	0.0001 to 0.001
CC(C)C[C@H]1C(=O)O[C@H](Cc2ccc(Cn3cc(I)cn3)cc2)C(=O)N(C)[C@@H](CC(C)C)C(=O)O[C@H](C)C(=O)N(C)[C@@H](CC(C)C)C(=O)O[C@H](Cc2ccccc2)C(=O)N(C)[C@@H](CC(C)C)C(=O)O[C@H](C)C(=O)N1C [Example 2-41, (3S,6R,9S,12R,15S,18R,21S,24R)-6-benzyl-18-(4-((4-iodo-1H-pyrazol-1-yl)methyl)benzyl)-3,9,15,21-tetraisobutyl-4,10,12,16,22,24-hexamethyl-1,7,13,19-tetraoxa-4,10,16,22-tetraazacyclotetracosan-2,5,8,11,14,17,20,23-octaone]	0.001 to 0.01	0.0001 to 0.001
CC(C)C[C@H]1C(=O)O[C@H](Cc2ccc(Cn3nc(C(F)(F)F)cc3C(F)(F)F)cc2)C(=O)N(C)[C@@H](CC(C)C)C(=O)O[C@H](C)C(=O)N(C)[C@@H](CC(C)C)C(=O)O[C@H](Cc2ccccc2)C(=O)N(C)[C@@H](CC(C)C)C(=O)O[C@H](C)C(=O)N1C [Example 2-55, (3S,6R,9S,12R,15S,18R,21S,24R)-6-benzyl-18-(4-((3,5-bis(trifluoromethyl)-1H-pyrazol-1-yl)methyl)benzyl)-3,9,15,21-tetraisobutyl-4,10,12,16,22,24-hexamethyl-1,7,13,19-tetraoxa-4,10,16,22-tetraazacyclotetracosan-2,5,8,11,14,17,20,23-octaone]	0.001 to 0.01	0.0001 to 0.001
Cc1cc(C2CC2)n(Cc2ccc(C[C@H]3OC(=O)[C@H](CC(C)C)N(C)C(=O)[C@@H](C)OC(=O)[C@H](CC(C)C)N(C)C(=O)[C@@H](Cc4ccc(Cn5nc(C)cc5C5CC5)cc4)OC(=O)[C@H](CC(C)C)N(C)C(=O)[C@@H](C)OC(=O)[C@H](CC(C)C)N(C)C3=O)cc2)n1 [Example 1b-181, (3S,6R,9S,12R,15S,18R,21S,24R)-6,18-bis(4-((5-cyclopropyl-3-methyl-1H-pyrazol-1-yl)methyl)benzyl)-3,9,15,21-tetraisobutyl-4,10,12,16,22,24-hexamethyl-1,7,13,19-tetraoxa-4,10,16,22-tetraazacyclotetracosan-2,5,8,11,14,17,20,23-octaone]	0.01 to 0.1	0.001 to 0.01
CC(C)C[C@H]1C(=O)O[C@H](Cc2ccc(Cn3ccnc3C(F)(F)F)cc2)C(=O)N(C)[C@@H](CC(C)C)C(=O)O[C@H](C)C(=O)N(C)[C@@H](CC(C)C)C(=O)O[C@H](Cc2ccccc2)C(=O)N(C)[C@@H](CC(C)C)C(=O)O[C@H](C)C(=O)N1C [Example 8-12, (3S,6R,9S,12R,15S,18R,21S,24R)-6-benzyl-3,9,15,21-tetraisobutyl-4,10,12,16,22,24-hexamethyl-18-(4-((2-(trifluoromethyl)-1H-imidazol-1-yl)methyl)benzyl)-1,7,13,19-tetraoxa-4,10,16,22-tetraazacyclotetracosan-2,5,8,11,14,17,20,23-octaone]	0.001 to 0.01	0.0001 to 0.001
CC(C)C[C@H]1C(=O)O[C@H](Cc2cccc(Cn3cc(Br)cn3)c2)C(=O)N(C)[C@@H](CC(C)C)C(=O)O[C@H](C)C(=O)N(C)[C@@H](CC(C)C)C(=O)O[C@H](Cc2cccc(Cn3cc(Br)cn3)c2)C(=O)N(C)[C@@H](CC(C)C)C(=O)O[C@H](C)C(=O)N1C [Example 4-2, (3S,6R,9S,12R,15S,18R,21S,24R)-6,18-bis(3-((4-bromo-1H-pyrazol-1-yl)methyl)benzyl)-3,9,15,21-tetraisobutyl-4,10,12,16,22,24-hexamethyl-1,7,13,19-tetraoxa-4,10,16,22-tetraazacyclotetracosan-2,5,8,11,14,17,20,23-octaone]	0.001 to 0.01	0.0001 to 0.001
